System: periphere Blutzellen (PBC)
Experiment: Cell damage (apoptosis rate, CaspACE assay, flow cytometry) in peripheral blood cells (Experiment 5)
Type: cell-based
Description: Um die therapeutische Breite der neuen Substanzen abschätzen zu können, wurden periphere Blutzellen (PBC) und hämatologische Zellen (Nalm-6; CEM und U-937) für 24 Stunden mit unterschiedlichen Dosen verschiedener Triazenverbindungen bzw. Doxorubicin als positive Kontrolle für die hämatologischen Zelllinien inkubiert. Das Maß der Zellschädigung (Apoptoserate) wurde mittels CaspACE™ Assay (am Durchflusszytometer) bestimmt.
Verschiedene Triazene wie erfindungsgemäße Verbindungen nach Beispiel 1, TMZ sowie Verbindungen nach Präparat 2 und 5 (entsprechend Verbindungen nach Präparat 2 und Beispiel 2a jeweils der WO 2009/004060) wurden in DMSO bzw. Wasser entsprechend den Angaben in Abbildung 22 gelöst.
Periphäre Blutzellen (PBC) werden jeweils mit der IC50 für die MDA-MB231 gemäß Experiment 3 der entsprechenden Substanzen inkubiert. Es wird gezeigt, dass die erfindungsgemäße Verbindung nach Beispiel 1 nicht mehr DNA-Schädigungen in den PBC erzeugt als eine Negativkontrolle, […]

**Q.** Which “Zellschädigung (Apoptoserate) vs. Negativkontrolle” value (PBC, 24 stündige Inkubation) does the source give for CN(C)N=Nc1ccc(C(=O)c2ccc(O)cc2)cc1 [Beispiel 1] here?
**A.** nicht mehr geschädigt als durch eine Negativkontrolle

**Q.** And the “% Zellen in Apoptose” value (Versuch 1 Lymphozyten, 24 Stunden incubation at the IC50 for MDA-MB231)?
**A.** 8,120%

Reference: EP2557075A1, “New triazene compounds for treating cancer” (Trin Therapeutics GmbH, priority 2011, dated 2013)
